Measurements reported in US10202360B2 (CELGENE QUANTICEL RESEARCH, INC., priority 2016, dated 2019).

Target: CREBBP (Homo sapiens (Human), UniProt Q92793)
Assay: In vitro enzyme inhibition assay - CREBBP inhibition (AlphaScreen, biotinylated H4-tetraacetyl peptide)
Format: binding
Conditions: Table 28; AlphaScreen, H4-tetraacetyl peptide
Description: Determination of the IC50 for the CREBBP inhibitors disclosed herein was performed as follows: CREBBP was cloned and expressed in E. Coli as His-tag protein and purified by Nickel affinity and gel-filtration chromatography. […] CREBBP binding and inhibition was assessed by monitoring the interaction of biotinylated H4-tetraacetyl peptide (AnaSpec, H4K5/8/12/16(Ac), biotin-labeled) with the target using the AlphaScreen technology (Perkin Elmer). In a 384-well ProxiPlate CREBBP (50 nM final) was combined with peptide (20 nM final) in 50 mM HEPES (pH 7.3), 10 mM NaCl, 0.25 mM TCEP, 0.1% (w/v) BSA, and 0.005% (w/v) Brij-35 either in the presence of DMSO (final 0.4% DMSO) or compound dilution series in DMSO. After 20-minute incubation at room temperature, Alpha streptavidin donor beads and Nickel Chelate acceptor beads were added to a final concentration of 5 μg/mL. After two hours of equilibration, plates were read on an Envision instrument and the IC50 was calculated using a four parameter non-linear curve fit.
The ability of the compounds disclosed herein to inhibit CBP activity was quantified and the respective IC50 value was determined.

CREBBP, sequence (Q92793 1081-1197): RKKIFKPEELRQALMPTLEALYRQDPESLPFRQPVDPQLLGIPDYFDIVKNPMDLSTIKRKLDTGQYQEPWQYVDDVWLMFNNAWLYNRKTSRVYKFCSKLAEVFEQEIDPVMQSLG

Row | Structure (SMILES) | IC50 [nM]
1 | CCCCS(=O)(=O)Nc1cc(-c2cc(C)c(=O)n(C)c2)nc(Oc2ccc(F)cc2F)n1 [Example 64, N-(2-(2,4-difluorophenoxy)-6-(1,5-dimethyl-6-oxo-1,6-dihydropyridin-3-yl)pyrimidin-4-yl)butane-1-sulfonamide] | < 500
2 | Cc1cc(-c2cc(NS(=O)(=O)C(C)(C)C)nc(Oc3ccc(F)cc3F)n2)cn(C)c1=O [Example 65, N-(2-(2,4-difluorophenoxy)-6-(1,5-dimethyl-6-oxo-1,6-dihydropyridin-3-yl)pyrimidin-4-yl)-2-methylpropane-2-sulfonamide] | < 500
3 | Cc1cc(F)ccc1Oc1nc(NS(=O)(=O)C(C)C)cc(-c2cc(C)c(=O)n(C)c2)n1 [Example 67, N-(6-(1,5-dimethyl-6-oxo-1,6-dihydropyridin-3-yl)-2-(4-fluoro-2-methylphenoxy)pyrimidin-4-yl)propane-2-sulfonamide] | < 500
4 | COc1ccc(Oc2nc(NS(=O)(=O)C(C)C)cc(-c3cc(C)c(=O)n(C)c3)n2)cc1Cl [Example 68, N-(2-(3-chloro-4-methoxyphenoxy)-6-(1,5-dimethyl-6-oxo-1,6-dihydropyridin-3-yl)pyrimidin-4-yl)propane-2-sulfonamide] | < 500
5 | Cc1cc(-c2cc(NS(=O)(=O)C(C)C)nc(Oc3ccccc3)n2)cn(C)c1=O [Example 69, N-(6-(1,5-dimethyl-6-oxo 1,6-dihydropyridin-3-yl)-2-phenoxypyrimidin-4-yl)propane-2-sulfonamide] | < 500
6 | Cc1cc(-c2cc(NS(=O)(=O)C(C)C)nc(Oc3ccc(F)cc3)n2)cn(C)c1=O [Example 70, N-(6-(1,5-dimethyl-6-oxo-1,6-dihydropyridin-3-yl)-2-(4-fluorophenoxy)pyrimidin-4-yl)propane-2-sulfonamide] | < 500
7 | Cc1cccc(C)c1Oc1nc(NS(=O)(=O)C(C)C)cc(-c2cc(C)c(=O)n(C)c2)n1 [Example 71, N-(6-(1,5-dimethyl-6-oxo-1,6-dihydropyridin-3-yl)-2-(2,6-dimethylphenoxy)pyrimidin-4-yl)propane-2-sulfonamide] | < 500
8 | Cc1cc(-c2cc(N(C)S(=O)(=O)C(C)C)nc(Oc3ccc(F)cc3F)n2)cn(C)c1=O [Example 73, N-(2-(2,4-difluorophenoxy)-6-(1,5-dimethyl-6-oxo-1,6-dihydropyridin-3-yl)pyrimidin-4-yl)-N-methylpropane-2-sulfonamide] | < 500
9 | CCCCS(=O)(=O)Nc1cc(-c2cc(C)c(=O)n(C)c2)nc(Oc2cnn(C)c2)n1 [Example 74, N-(6-(1,5-dimethyl-6-oxo-1,6-dihydropyridin-3-yl)-2-((1-methyl-1H-pyrazol-4-yl)oxy)pyrimidin-4-yl)butane-1-sulfonamide] | < 500
10 | CCCCS(=O)(=O)Nc1cc(-c2cc(C)c(=O)n(C)c2)nc(Oc2cccc3c2ccn3C)n1 [Example 75, N-(6-(1,5-dimethyl-6-oxo-1,6-dihydropyridin-3-yl)-2-((1-methyl-1H-indol-4-yl)oxy)pyrimidin-4-yl)butane-1-sulfonamide] | < 500
11 | Cc1cc(-c2cc(NS(=O)(=O)C(C)C)nc(Oc3cccc4c3ccn4C)n2)cn(C)c1=O [Example 76, N-(6-(1,5-dimethyl-6-oxo-1,6-dihydropyridin-3-yl)-2-((1-methyl-1H-indol-4-yl)oxy)pyrimidin-4-yl)propane-2-sulfonamide] | < 500
12 | Cc1cc(-c2cc(NC(=O)CC(C)C)nc(Oc3ccc(F)cc3F)n2)cn(C)c1=O [Example 77, N-(2-(2,4-difluorophenoxy)-6-(1,5-dimethyl-6-oxo-1,6-dihydropyridin-3-yl)pyrimidin-4-yl)-3-methylbutanamide] | 500 to 5000
13 | COCCS(=O)(=O)Nc1cc(-c2cc(C)c(=O)n(C)c2)nc(Oc2c(C)cccc2C)n1 [Example 78, N-(6-(1,5-dimethyl-6-oxo-1,6-dihydropyridin-3-yl)-2-(2,6-dimethylphenoxy)pyrimidin-4-yl)-2-methoxyethane-1-sulfonamide] | < 500
14 | CCCCC(=O)Nc1cc(-c2cc(C)c(=O)n(C)c2)nc(Oc2ccc(F)cc2F)n1 [Example 79, N-(2-(2,4-difluorophenoxy)-6-(1,5-dimethyl-6-oxo-1,6-dihydropyridin-3-yl)pyrimidin-4-yl)pentanamide] | < 500
15 | CCCS(=O)(=O)Nc1cc(-c2cc(C)c(=O)n(C)c2)nc(Oc2c(C)cccc2C)n1 [Example 80, N-(6-(1,5-dimethyl-6-oxo-1,6-dihydropyridin-3-yl)-2-(2,6-dimethylphenoxy)pyrimidin-4-yl)propane-1-sulfonamide] | < 500
16 | Cc1cccc(C)c1Oc1nc(NS(=O)(=O)CCCF)cc(-c2cc(C)c(=O)n(C)c2)n1 [Example 81, N-(6-(1,5-dimethyl-6-oxo-1,6-dihydropyridin-3-yl)-2-(2,6-dimethylphenoxy)pyrimidin-4-yl)-3-fluoropropane-1-sulfonamide] | < 500

Row | Structure (SMILES) | IC50 [nM]
17 | Cc1cccc(C)c1Oc1nc(NS(=O)(=O)CC2CC2)cc(-c2cc(C)c(=O)n(C)c2)n1 [Example 82, 1-cyclopropyl-N-(6-(1,5-dimethyl-6-oxo-1,6-dihydropyridin-3-yl)-2-(2,6-dimethylphenoxy)pyrimidin-4-yl)methanesulfonamide] | < 500
18 | Cc1cccc(C)c1Oc1nc(NS(=O)(=O)CC(C)C)cc(-c2cc(C)c(=O)n(C)c2)n1 [Example 83, N-(6-(1,5-dimethyl-6-oxo-1,6-dihydropyridin-3-yl)-2-(2,6-dimethylphenoxy)pyrimidin-4-yl)-2-methylpropane-1-sulfonamide] | < 500
19 | CCC(C)S(=O)(=O)Nc1cc(-c2cc(C)c(=O)n(C)c2)nc(Oc2c(C)cccc2C)n1 (stereo not shown) [Example 84, N-(6-(1,5-dimethyl-6-oxo-1,6-dihydropyridin-3-yl)-2-(2,6-dimethylphenoxy)pyrimidin-4-yl)butane-2-sulfonamide] | < 500
20 | COC(C)CS(=O)(=O)Nc1cc(-c2cc(C)c(=O)n(C)c2)nc(Oc2c(C)cccc2C)n1 (stereo not shown) [Example 85, N-(6-(1,5-dimethyl-6-oxo-1,6-dihydropyridin-3-yl)-2-(2,6-dimethylphenoxy)pyrimidin-4-yl)-2-methoxypropane-1-sulfonamide] | < 500
21 | CCCCS(=O)(=O)Nc1cc(-c2cc(F)c(=O)n(C)c2)nc(Oc2c(C)cccc2C)n1 [Example 86, N-(2-(2,6-dimethylphenoxy)-6-(5-fluoro-1-methyl-6-oxo-1,6-dihydropyridin-3-yl)pyrimidin-4-yl)butane-1-sulfonamide] | < 500
22 | CCCCS(=O)(=O)Nc1cc(-c2cc(C)c(=O)n(C)c2)nc(Oc2c(C)nn(C)c2C)n1 [Example 88, N-(6-(1,5-dimethyl-6-oxo-1,6-dihydropyridin-3-yl)-2-((1,3,5-trimethyl-1H-pyrazol-4-yl)oxy)pyrimidin-4-yl)butane-1-sulfonamide] | < 500
23 | CCCCS(=O)(=O)Nc1cc(-c2cn(C)c(=O)cc2C)nc(Oc2c(C)cccc2C)n1 [Example 89, N-(6-(1,4-dimethyl-6-oxo-1,6-dihydropyridin-3-yl)-2-(2,6-dimethylphenoxy)pyrimidin-4-yl)butane-1-sulfonamide] | < 500
24 | Cc1cc(-c2cc(NS(=O)(=O)C(C)C)cc(Oc3ccc(F)cc3F)n2)cn(C)c1=O [Example 90, N-(6-(2,4-difluorophenoxy)-1′,5′-dimethyl-6′-oxo-1′,6′-dihydro-[2,3′-bipyridin]-4-yl)propane-2-sulfonamide] | < 500
25 | Cc1cc(-c2cc(NS(=O)(=O)C(C)C)nc(Nc3ccc(F)cc3F)n2)cn(C)c1=O [Example 91, N-(2-((2,4-difluorophenyl)amino)-6-(1,5-dimethyl-6-oxo-1,6-dihydropyridin-3-yl)pyrimidin-4-yl)propane-2-sulfonamide] | < 500
26 | CCCS(=O)(=O)Nc1cc(-c2cc(C)c(=O)n(C)c2)cc(Oc2c(C)cccc2C)n1 [Example 92, N-(6′-(2,6-dimethylphenoxy)-1,5-dimethyl-6-oxo-1,6-dihydro-[3,4′-bipyridin]-2′-yl)propane-1-sulfonamide] | < 500
27 | Cc1cc(-c2cc(NS(=O)(=O)C(C)C)nc(Cc3ccc(F)cc3F)n2)cn(C)c1=O [Example 93, Propane-2-sulfonic acid [2-(2,4-difluoro-benzyl)-6-(1,5-dimethyl-6-oxo-1,6-dihydro-pyridin-3-yl)-pyrimidin-4-yl]-amide] | 500 to 5000
28 | CCS(=O)(=O)Nc1cc(-c2cc(C)c(=O)n(C)c2)nc(Cc2ccc(F)cc2F)n1 [Example 94, Ethanesulfonic acid [2-(2,4-difluoro-benzyl)-6-(1,5-dimethyl-6-oxo-1,6-dihydro-pyridin-3-yl)-pyrimidin-4-yl]-amide] | < 500
29 | Cc1cc(-c2cc(CS(=O)(=O)C(C)C)nc(Oc3ccc(F)cc3F)n2)cn(C)c1=O [Example 95, 5-[2-(2,4-Difluoro-phenoxy)-6-(propane-2-sulfonylmethyl)-pyrimidin-4-yl]-1,3-dimethyl-1H-pyridin-2-one] | < 500
30 | CCS(=O)(=O)Cc1cc(-c2cc(C)c(=O)n(C)c2)nc(Oc2ccc(F)cc2F)n1 [Example 96, 5-[2-(2,4-Difluoro-phenoxy)-6-ethanesulfonylmethyl-pyrimidin-4-yl]-1,3-dimethyl-1H-pyridin-2-one] | < 500
31 | CCCCS(=O)(=O)Nc1cc(-c2cn(C)c(=O)c3ccccc23)nc(Oc2c(C)cccc2C)n1 [Example 97, Butane-1-sulfonic acid [2-(2,6-dimethyl-phenoxy)-6-(2-methyl-1-oxo-1,2-dihydro-isoquinolin-4-yl)-pyrimidin-4-yl]-amide] | 500 to 5000
